Target: T1, CFTR (Homo sapiens, UniProt P13569, DEL508-508)
T1 construct: endogenous in cells; host or cells: primary human bronchial epithelial cells, F508del/MF genotype
Test: HBE Assay: Ussing chamber assay of CFTR-mediated short-circuit currents in F508del/MF-HBE cells with 1 μM Ivacaftor
Format: cell-based
Settings: 20% human serum; for Emax: compared to known Vertex corrector with 18 μM Tezacaftor and 1 μM Ivacaftor, read-out: HBE Max activity (%); for HBE Activity at 10 μM: single fixed concentration of 10 μM
Procedure: Ussing chamber experiments were performed using human bronchial epithelial (HBE) cells derived from CF subjects heterozygous for F508del and a minimal function CFTR mutation (F508del/MF-HBE) and cultured as previously described (Neuberger T, Burton B, Clark H, Van Goor F Methods Mol Biol 2011:741:39-54). After four days the apical media was removed, and the cells were grown at an air liquid interface for >14 days prior to use.
(§1) To isolate the CFTR-mediated short-circuit (ISC) current, F508del/MF-HBE grown on Costar® Snapwell™ cell culture inserts were mounted in an Ussing chamber and the transepithelial ISC was measured under voltage-clamp recording conditions (Vhold=0 mV) at 37° C. The basolateral solution contained (in mM) 145 NaCl, 0.83 K2HIPO4, 3.3 KH2PO4, 1.2 MgCl2, 1.2 CaCl2), 10 Glucose, 10 HEPES (pH adjusted to 7.4 with NaOH) and the apical solution contained (in mM) 145 NaGluconate, 1.2 MgCl2, 1.2 CaCl2), 10 glucose, 10 HEPES (pH adjusted to 7.4 with NaOH) and 30 μM amiloride to block the epithelial sodium channel. Forskolin (20 μM) was added to the apical surface to activate CFTR, followed by apical addition of a CFTR inhibitor cocktail consisting of BPO, GlyH-101, and CFTR inhibitor 172 (each at 20 μM final assay concentration) to specifically isolate CFTR currents. The CFTR-mediated ISC (μA/cm^2) for each condition was determined from the peak forskolin response to the steady-state current following inhibition.
The activity of the CFTR corrector compounds on the CFTR-mediated ISC was determined in Ussing chamber studies as described above. The F508del/MF-HBE cell cultures were either incubated with the corrector compounds at a range of concentrations in combination with 1 μM Ivacaftor or were incubated with the corrector compounds at a single fixed concentration of 10 μM in combination with 1 μM Ivacaftor for 18-24 hours at 37° C. and in the presence of 20% human serum. The concentration of corrector compounds with 1 μM Ivacaftor during the 18-24 hours incubations was kept constant throughout the Ussing chamber measurement of the CFTR-mediated ISC to ensure compounds were present throughout the entire experiment.
as §1, with “K2HPO4,” for “K2HIPO4,”

[1] = range of concentrations with 1 μM Ivacaftor, 18-24 hours
[2] = with 1 μM Ivacaftor, 18-24 hours

T1 sequence (P13569 with tags, fused parts or gaps DEL508-508): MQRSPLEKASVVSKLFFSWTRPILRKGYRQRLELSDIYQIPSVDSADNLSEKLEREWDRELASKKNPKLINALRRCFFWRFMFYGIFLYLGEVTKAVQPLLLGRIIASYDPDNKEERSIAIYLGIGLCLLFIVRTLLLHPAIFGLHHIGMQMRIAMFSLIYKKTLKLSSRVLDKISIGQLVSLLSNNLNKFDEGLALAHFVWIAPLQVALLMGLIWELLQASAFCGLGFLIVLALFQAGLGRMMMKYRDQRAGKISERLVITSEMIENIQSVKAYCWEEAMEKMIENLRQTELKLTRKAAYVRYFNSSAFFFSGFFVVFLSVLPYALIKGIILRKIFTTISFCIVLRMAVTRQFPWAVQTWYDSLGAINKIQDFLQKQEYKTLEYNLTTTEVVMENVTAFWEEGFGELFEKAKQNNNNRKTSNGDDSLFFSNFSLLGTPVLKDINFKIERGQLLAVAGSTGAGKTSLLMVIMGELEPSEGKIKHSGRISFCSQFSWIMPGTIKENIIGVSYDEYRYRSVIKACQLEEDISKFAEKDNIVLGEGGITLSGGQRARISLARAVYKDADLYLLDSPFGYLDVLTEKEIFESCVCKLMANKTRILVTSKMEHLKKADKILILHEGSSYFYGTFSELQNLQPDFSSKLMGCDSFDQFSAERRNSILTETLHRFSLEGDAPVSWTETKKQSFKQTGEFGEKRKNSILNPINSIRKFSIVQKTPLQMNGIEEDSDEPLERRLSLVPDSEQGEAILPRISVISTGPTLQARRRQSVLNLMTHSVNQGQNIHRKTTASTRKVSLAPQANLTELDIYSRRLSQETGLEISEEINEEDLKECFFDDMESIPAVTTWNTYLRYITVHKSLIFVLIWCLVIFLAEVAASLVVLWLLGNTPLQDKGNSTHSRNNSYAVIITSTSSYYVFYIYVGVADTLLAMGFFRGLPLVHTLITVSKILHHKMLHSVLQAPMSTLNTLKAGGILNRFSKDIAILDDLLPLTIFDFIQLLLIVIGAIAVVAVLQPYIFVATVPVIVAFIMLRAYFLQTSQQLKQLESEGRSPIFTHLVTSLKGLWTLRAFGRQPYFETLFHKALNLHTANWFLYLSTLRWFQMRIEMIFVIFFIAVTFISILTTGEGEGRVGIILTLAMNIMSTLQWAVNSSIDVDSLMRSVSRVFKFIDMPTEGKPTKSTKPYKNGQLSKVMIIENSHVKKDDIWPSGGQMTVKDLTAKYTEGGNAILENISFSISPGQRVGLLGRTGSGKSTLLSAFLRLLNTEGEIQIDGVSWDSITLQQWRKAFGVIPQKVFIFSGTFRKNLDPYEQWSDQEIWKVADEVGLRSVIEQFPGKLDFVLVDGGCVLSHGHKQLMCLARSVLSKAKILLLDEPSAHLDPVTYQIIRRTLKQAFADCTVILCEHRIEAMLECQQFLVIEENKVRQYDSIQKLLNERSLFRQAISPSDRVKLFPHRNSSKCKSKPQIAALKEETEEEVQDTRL

| EC50 [2] | HBE Max Activity [2] | Compound | further results |
| --- | --- | --- | --- |
| < 1000 nM | +++ (+++ is >600%) | COc1ccc(CN2C(=O)c3cccc(c3)S(=O)(=O)Nc3nc(c(C)c(-c4c(C)cccc4CC4CCCCC4)n3)OC[C@H]2CC(C)(C)C)nc1 (atropisomer, axis not shown) [Compound 301] |  |
| < 1000 nM | +++ (+++ is >600%) | Cc1cccc(CC2CCCCC2)c1-c1nc2nc(c1C)OC[C@@H](CC(C)(C)C)N(Cc1ncccc1N1CCOCC1)C(=O)c1cccc(c1)S(=O)(=O)N2 (atropisomer, axis not shown) [Compound 309] |  |
| < 1000 nM | +++ (+++ is >600%) | Cc1cccc(CC2CCCCC2)c1-c1nc2nc(c1C)OC[C@@H](CC(C)(C)C)N(Cc1ncc(N(C)C)cn1)C(=O)c1cccc(c1)S(=O)(=O)N2 (atropisomer, axis not shown) [Compound 303] |  |
| < 1000 nM | +++ (+++ is >600%) | Cc1cccc(CC2CCCC2)c1-c1nc2nc(c1C)OC[C@@H](CC(C)(C)C)N(Cc1ccc(OC(C)C)cn1)C(=O)c1cccc(c1)S(=O)(=O)N2 (atropisomer, axis not shown) [Compound 267] |  |
| < 1000 nM | +++ (+++ is >600%) | Cc1cccc(CC(C)C)c1-c1nc2nc(c1C)OC[C@@H](CC(C)(C)C)N(Cc1ccc(N3CCOCC3)cn1)C(=O)c1cccc(c1)S(=O)(=O)N2 (atropisomer, axis not shown) [Compound 298] |  |
| 1000 to 3000 nM | +++ (+++ is >600%) | COCCN(C)c1cnc(CN2C(=O)c3cccc(c3)S(=O)(=O)Nc3nc(c(C)c(-c4c(C)cccc4CC4CCCCC4)n3)OC[C@H]2CC(C)(C)C)cn1 [Compound 278] |  |
| < 1000 nM | +++ (+++ is >600%) | Cc1cccc(CC2CCCCC2)c1-c1nc2nc(c1C)OC[C@@H](CC(C)(C)C)N(Cc1ccc(N3CCCCC3)cn1)C(=O)c1cccc(c1)S(=O)(=O)N2 (atropisomer, axis not shown) [Compound 308] |  |
| < 1000 nM | +++ (+++ is >600%) | CCc1cccc(C)c1-c1nc2nc(c1C)OC[C@@H](CC(C)(C)C)N(Cc1ccc(N3CCOCC3)cn1)C(=O)c1cccc(c1)S(=O)(=O)N2 (atropisomer, axis not shown) [Compound 287] |  |

Further lines, the compound ahead of its results:

| Compound | EC50 [2] | HBE Max Activity [2] | further results |
| --- | --- | --- | --- |
| Cc1cccc(C)c1-c1nc2nc(c1F)OC[C@@H](CC1CC1)N(Cc1ncc(OC3CCC3)cn1)C(=O)c1cccc(c1)S(=O)(=O)N2 [Compound 344] |  |  | EC50 [1]: 1000 to 3000 nM; Emax [2]: > 60% |
| Cc1cccc(C)c1-c1nc2nc(c1C)OC[C@@H](CC(C)(C)C)N(Cc1ncc(N3CCC(C)(C)C3)cn1)C(=O)c1cccc(c1)S(=O)(=O)N2 [Compound 191] | < 1000 nM | +++ (+++ is >600%) |  |
| Cc1cccc(CC2CCCC2)c1-c1nc2nc(c1C)OC[C@@H](CC(C)(C)C)N(Cc1ncc(OC(C)C)cn1)C(=O)c1cccc(c1)S(=O)(=O)N2 (atropisomer, axis not shown) [Compound 266] | < 1000 nM | +++ (+++ is >600%) |  |
| Cc1cccc(OC(C)C)c1-c1nc2nc(c1C)OC[C@@H](CC(C)(C)C)N(Cc1cnc(N(C)CC(C)(C)C)cn1)C(=O)c1cccc(c1)S(=O)(=O)N2 [Compound 222] |  |  | HBE Activity at 10 μM (with 1 μM Ivacaftor): +++ (+++ is >600%) |
| Cc1cccc(CC2CCCCC2)c1-c1nc2nc(c1C)OC[C@@H](CC(C)(C)C)N(Cc1cccc(N(C)C(C)C)n1)C(=O)c1cccc(c1)S(=O)(=O)N2 (atropisomer, axis not shown) [Compound 255] | < 1000 nM | +++ (+++ is >600%) |  |
| COc1c2nc(nc1-c1c(C)cccc1C)NS(=O)(=O)c1cccc(c1)C(=O)N(Cc1ncc(OC3CCC3)cn1)[C@H](CC(C)C)CO2 [Compound 349] |  |  | EC50 [1]: < 1000 nM; Emax [2]: > 60% |
| Cc1cccc(C)c1-c1nc2nc(c1F)OC[C@@H](CC(C)C)N(Cc1ncc(N3CCC(C)(C)C3)cn1)C(=O)c1cccc(c1)S(=O)(=O)N2 [Compound 342] |  |  | EC50 [1]: < 1000 nM; Emax [2]: > 60% |
| Cc1cccc(C2CC2)c1-c1nc2nc(c1C)OC[C@@H](CC(C)(C)C)N(Cc1ncc(N3CCOCC3)cn1)C(=O)c1cccc(c1)S(=O)(=O)N2 (atropisomer, axis not shown; (P)) [Compound 216, (5P,11R)-6-(2-Cyclopropyl-6-methyl-phenyl)-11-(2,2-dimethylpropyl)-7-methyl-12-[(5-morpholinopyrimidin-2-yl)methyl]-2,2-dioxo-9-oxa-2λ^6-thia-3,5,12,19-tetrazatricyclo[12.3.1.14,8]nonadeca-1(18),4(19),5,7,14,16-hexaen-13-one] | < 1000 nM | +++ (+++ is >600%) |  |
| Cc1cccc(CC2CCCCC2)c1-c1nc2nc(c1C(F)(F)F)OC[C@@H](CC(C)(C)C)N(Cc1ccc(N3CCOCC3)cn1)C(=O)c1cccc(c1)S(=O)(=O)N2 (atropisomer, axis not shown) [Compound 249] |  |  | HBE Activity at 10 μM (with 1 μM Ivacaftor): ++ (++ is 30-60%) |
| Cc1cccc(CC(C)C)c1-c1nc2nc(c1C(F)(F)F)OC[C@@H](CC(C)(C)C)N(Cc1ccc(N3CCOCC3)cn1)C(=O)c1cccc(c1)S(=O)(=O)N2 (atropisomer, axis not shown) [Compound 246] | < 1000 nM | +++ (+++ is >600%) |  |
| Cc1cccc(CC(C)C)c1-c1nc2nc(c1C)OC[C@@H](CC(C)(C)C)N(Cc1ncc(N(C)C)cn1)C(=O)c1cccc(c1)S(=O)(=O)N2 (atropisomer, axis not shown) [Compound 236] | < 1000 nM | +++ (+++ is >600%) |  |
| Cc1cccc(CC2CCCC2)c1-c1nc2nc(c1C)OC[C@@H](CC(C)(C)C)NC(=O)c1cccc(c1)S(=O)(=O)N2 (atropisomer, axis not shown) [Compound 224] |  |  | HBE Activity at 10 μM (with 1 μM Ivacaftor): +++ (+++ is >600%) |
| Cc1cccc(CC(C)C)c1-c1nc2nc(c1C)OC[C@@H](C(C)C)N(Cc1nccc(N(C)C(C)C)n1)C(=O)c1cccc(c1)S(=O)(=O)N2 (atropisomer, axis not shown) [Compound 232] |  |  | HBE Activity at 10 μM (with 1 μM Ivacaftor): +++ (+++ is >600%) |
| Cc1cccc(CC(C)(C)C)c1-c1nc2nc(c1C)OC[C@@H](CC(C)(C)C)N(Cc1ncc(OC3CCC3)cn1)C(=O)c1cccc(c1)S(=O)(=O)N2 (atropisomer, axis not shown) [Compound 353] |  |  | HBE Activity at 10 μM (%) (single fixed concentration of 10 μM with 1 μM Ivacaftor, 18-24 hours): +++ (+++ is >60%) |
| Cc1cccc(CC2CCCCC2)c1-c1nc2nc(c1C)OC[C@@H](CC(C)(C)C)N(Cc1ncc(C3CCOCC3)cn1)C(=O)c1cccc(c1)S(=O)(=O)N2 [Compound 251] | < 1000 nM | +++ (+++ is >600%) |  |
| Cc1c2nc(nc1-c1ccccc1C(C)(C)C)NS(=O)(=O)c1cccc(c1)C(=O)N(Cc1ccc(N3CCOCC3)cn1)[C@H](CC(C)(C)C)CO2 [Compound 181] | < 1000 nM | +++ (+++ is >600%) |  |
| Cc1cccc(COC(C)C)c1-c1nc2nc(c1C)OC[C@@H](CC(C)(C)C)N(Cc1ncc(N3CCC(C)(C)C3)cn1)C(=O)c1cccc(c1)S(=O)(=O)N2 (single isomer, unassigned) [Compound 221] | < 1000 nM | +++ (+++ is >600%) |  |
| Cc1cccc(CC(C)C)c1-c1nc2nc(c1C)OC[C@@H](CC(C)(C)C)N(Cc1ncc(N(C)CC(C)(C)C)cn1)C(=O)c1cccc(c1)S(=O)(=O)N2 (atropisomer, axis not shown; (M)) [Compound 210, (5M,11R)-11-(2,2-dimethylpropyl)-12-({5-[(2,2-dimethylpropyl)(methyl)amino]pyrimidin-2-yl}methyl)-7-methyl-6-[2-methyl-6-(2-methylpropyl)phenyl]-9-oxa-2λ^6-thia-3,5,12,19-tetraazatricyclo[12.3.1.14,8]nonadeca-1(17),4(19),5,7,14(18),15-hexaene-2,2,13-trione] |  |  | HBE Activity at 10 μM (with 1 μM Ivacaftor): +++ (+++ is >600%) |

Reference: patent US20230374038A1, “MODULATORS OF CYSTIC FIBROSIS TRANSMEMBRANE CONDUCTANCE REGULATOR” (VERTEX PHARMACEUTICALS INCORPORATED, priority 2020, published 2023)
